Results from patent publication US8715920B2, “Composition for preserving platelets during photosensitization” (Biovec Transfusion, LLC, priority 2010, dated 2014).
“Also recorded” adds a separate entry of the source. Positions of bridges follow the written chain, without caps; N, C: chain ends. Non-standard residues stand in square brackets, D forms with d. Residues, ends and D or L forms follow the SMILES beside them. hArg = N=C(N)NCCCC[C@H](N)C(=O)O; Mpa = O=C(O)CCS

Key:
[1] = Photodegradation upon exposure to ultraviolet light by HPLC analysis; details: for relative stabilities: assuming the dosage codes were equivalent
[2] = more sensitive to the αPTT; cited from earlier work

N=C(N)NCCCC[C@@H]1NC(=O)CCSSC[C@@H](C(N)=O)NC(=O)[C@@H]2CCCN2C(=O)[C@H](Cc2c[nH]c3ccccc23)NC(=O)[C@H](CC(=O)O)NC(=O)CNC1=O [Eptifibatide] ([Mpa][hArg]GDWPC-NH2; disulfide 1-7)
relative stabilities ([1]; UV282): Argatroban>Tirofiban>>Eptifibatide | photodegradation profile, in words ([1]; UV 282 nm): faster photodegradation profile than the other compounds tested | HPLC peak relative to unexposed control ([1]; UV 282 nm, exposure A): 47.0% | HPLC peak relative to unexposed control ([1]; UV 282 nm, remainder of the exposures (after exposure A)): below the LLOD | relative stabilities ([1]; UV308): Tirofiban>>Argatroban>>Eptifibatide | photodegradation, in words ([1]; UV 308 nm): substantial photodegradation, but to a lesser extent than at UV282

COc1ccc2ccc(S(=O)(=O)N(C)[C@H]3CCN(Cc4csc(C(=N)N)c4)C3=O)cc2c1 [RPR-120844]
effect on PT and αPTT [2]: prolongs the PT and αPTT in a concentration-dependent manner

CCCCS(=O)(=O)N[C@@H](Cc1ccc(OCCCCC2CCNCC2)cc1)C(=O)O [Tirofiban]
HPLC peak relative to unexposed control ([1]; UV 282 nm, exposure A): 81.2% | HPLC peak relative to unexposed control ([1]; UV 282 nm, exposure B): 59.9% | HPLC peak relative to unexposed control ([1]; UV 282 nm, exposure C): 37.7% | HPLC peak relative to unexposed control ([1]; UV 282 nm, exposure D): 15.4% | HPLC peak relative to unexposed control ([1]; UV 282 nm, exposure F): below the LLOQ; also recorded: indeterminate | HPLC peak relative to unexposed control ([1]; UV 308 nm, exposure A): 81.2% | HPLC peak relative to unexposed control ([1]; UV 308 nm, exposure B): 76.9% | HPLC peak relative to unexposed control ([1]; UV 308 nm, exposure C): 73.0%
